Measured values published in patent US20050197651A1, “Vaginal ring preparation and its application” (priority 2001, published 2005).

Assay: Drug releasing test of the vaginal ring (shaking water bath, HPLC)
Type: physicochemical
Conditions: device of the current invention vs prior art device, FIG. 4 vs FIG. 3 and FIG. 6 vs FIG. 5
Method: Drug Releasing Test: Devices used: 1. High Pressure Liquid Chromatography (HPLC). Shimadzu LC-1 OA T • 2. Shaking water bath: HZS-H Process: • 1. Tie the vaginal ring into a big test tube (125 ml). Add 100 ml distilled water into the tube under 37C. Shake the testing tube for 24 hours with shaking rate of 60/minute. Then take the vaginal ring out. • 2. The standard sample is the Mifepristone provided by Shanghai Family Planning Institute. • 3. C-18-[…] Analytic column (Brand: Shimadzu): Pre-set HPLC. The testing conditions are: • Wavelength 310 nm. • Sensitivity: 0.1 AUFS • Speed: 3 Atten. 5 • Flow phase: methanol: water=70:30 • Moving speed=1 ml/minute • Injection amount: 10 μl • Peak time: 5.48 minutes Take 23 μl/ml standard sample, 10 μl injection sample to get the peak area of 656504-656800. Prepare the calibration based on the amount contained in 100 ml.

C#C[C@]1(O)CC[C@H]2[C@@H]3CCC4=Cc5oncc5C[C@]4(C)[C@H]3CC[C@@]21C [Danazol]
delivery rate over days, compared with prior art vaginal ring: higher delivery rate of this drug over a longer period of time

CC#C[C@]1(O)CC[C@H]2[C@@H]3CCC4=CC(=O)CCC4=C3[C@@H](c3ccc(N(C)C)cc3)C[C@@]21C [Mifestone, Mifepristone]
delivery rate over days, compared with prior art vaginal ring: significantly higher over a longer period of time
